ChEMBL document CHEMBL1201862, “PubChem BioAssay data set” (2004)
Calls of active or inactive are those of the source.

Key:
[1] = NIH-3T3 fibroblast cytotoxicity, dose response, cytotoxicity control, cell-based, fluorescence, Alamar Blue, secondary assay (AID 2327); type: functional;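 note: NIH-3T3 mouse fibroblasts cultured with fluconazole at 8 µg/mL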
[2] = fluconazole-exposed Candida albicans growth modulators – fluorescence, retest, confirmation (AID 2467); type: functional, cell-based
Cytochrome P450 2C9 = Cytochrome P450 2C9 (Homo sapiens, UniProt P11712)
Fatty acid synthase [3] = target: T1, Fatty acid synthase (Homo sapiens, UniProt P49327); test: inhibition of human FAS-TE enzyme activity – biochemical, endpoint fluorescence intensity, uHTS hits, dose response (AID 624327); type: functional;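 note: fluorescence from hydrolysis of an O-methyl fluorescein acyl ester substrate by the enzyme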
Fatty acid synthase [4] = target: T1, Fatty acid synthase; test: inhibition of human FAS-TE enzyme activity – biochemical, kinetic fluorescence intensity, dose response (AID 624326); type: functional;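 note: rate of fluorescence rise from hydrolysis of a fluorogenic O-methyl fluorescein ester substrate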
Cytochrome P450 3A4 = Cytochrome P450 3A4 (Homo sapiens, UniProt P08684);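 note: CYP3A4 tested as one member of a cytochrome P450 panel screen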
[5] = target: FAD-linked sulfhydryl oxidase ALR (Homo sapiens, UniProt P55789); test: ALR-catalysed DTT oxidation blockers – biochemical, H2O2 detection, luminescence, cherry-pick, dose response (AID 493248)
[6] = target: T2, Calpain-2 catalytic subunit (Sus scrofa, UniProt P43367); test: m-calpain protease blockers, concentration series – biochemical, fluorogenic peptide substrate, dose response (AID 1420); type: functional
T2 sequence (P43367 whole entry): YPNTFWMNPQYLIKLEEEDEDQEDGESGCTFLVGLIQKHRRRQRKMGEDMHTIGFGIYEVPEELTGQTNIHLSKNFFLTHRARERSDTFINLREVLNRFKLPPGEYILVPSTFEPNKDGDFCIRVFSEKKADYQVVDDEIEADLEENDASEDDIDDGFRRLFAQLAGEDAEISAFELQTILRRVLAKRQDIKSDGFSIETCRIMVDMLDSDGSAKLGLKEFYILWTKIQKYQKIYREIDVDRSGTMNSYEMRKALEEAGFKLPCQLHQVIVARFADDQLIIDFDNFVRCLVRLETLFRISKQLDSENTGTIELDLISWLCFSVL

cells [7] = type: functional, cell-based
cells [8] = type: functional, cell-based; remark: listed apart in the source
INS1 = test: INS-1E survival protection against cytokine death – cell-based, luminescence, retest, dose response (AID 449756); type: functional; conditions: Rattus norvegicus;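 note: cell death triggered by IL-1 beta plus TNF-alpha plus IFN-gamma mixture; protective hits raise ATP signal compared with cytokine alone wells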
Large T antigen = Large T antigen (Simian virus 40, UniProt P03070); type: functional, Betapolyomavirus macacae;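 note: Confirmatory-stage PubChem screen for compounds that inhibit SV40 T antigen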
[9] = Luminescence Cell-Based Dose Retest to Confirm Inhibitors of Cancer Stem Cells. [Related pubchem assays (depositor defined):AID2717, AID2721]; type: functional; conditions: Homo sapiens
[10] = THP-1 cell cytotoxicity, dose response, cytotoxicity control for non-replicating M. tuberculosis project (AID 489025); type: functional
[11] = target: T3, Rac GTPase-activating protein 1 (Homo sapiens, UniProt Q9H0H5); test: blockers of MgcRacGAP-driven Rac1 GTP hydrolysis – biochemical, ADP Hunter fluorescence, primary and confirmatory, confirmation (AID 624330); type: functional
T3 sequence (Q9H0H5 whole entry): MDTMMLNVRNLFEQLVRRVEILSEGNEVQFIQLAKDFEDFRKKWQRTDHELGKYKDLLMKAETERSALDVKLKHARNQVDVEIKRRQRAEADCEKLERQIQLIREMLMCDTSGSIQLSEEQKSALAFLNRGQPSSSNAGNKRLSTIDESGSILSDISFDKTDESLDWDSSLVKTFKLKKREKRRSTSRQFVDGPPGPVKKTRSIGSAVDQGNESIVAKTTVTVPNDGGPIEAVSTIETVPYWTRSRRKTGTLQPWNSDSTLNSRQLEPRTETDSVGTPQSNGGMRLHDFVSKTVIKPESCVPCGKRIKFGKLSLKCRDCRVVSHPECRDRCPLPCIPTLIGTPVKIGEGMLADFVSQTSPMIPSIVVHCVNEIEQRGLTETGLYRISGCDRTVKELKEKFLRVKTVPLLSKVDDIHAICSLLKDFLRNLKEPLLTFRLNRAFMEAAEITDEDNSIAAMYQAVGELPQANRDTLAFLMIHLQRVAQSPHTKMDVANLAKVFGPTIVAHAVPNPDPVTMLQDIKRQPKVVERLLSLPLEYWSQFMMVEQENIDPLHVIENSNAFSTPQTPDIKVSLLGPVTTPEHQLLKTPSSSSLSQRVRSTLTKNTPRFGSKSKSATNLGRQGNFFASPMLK

Cytochrome P450 2C19 = Cytochrome P450 2C19 (Homo sapiens, UniProt P33261); test: Cytochrome panel assay with activity outcomes. Panel member name: p450-cyp2c19 Compounds with AC50 equal or less than 10 uM are considered active; type: functional; conditions: read-out: AC50
Cytochrome P450 2C19, sequence (P33261 whole entry): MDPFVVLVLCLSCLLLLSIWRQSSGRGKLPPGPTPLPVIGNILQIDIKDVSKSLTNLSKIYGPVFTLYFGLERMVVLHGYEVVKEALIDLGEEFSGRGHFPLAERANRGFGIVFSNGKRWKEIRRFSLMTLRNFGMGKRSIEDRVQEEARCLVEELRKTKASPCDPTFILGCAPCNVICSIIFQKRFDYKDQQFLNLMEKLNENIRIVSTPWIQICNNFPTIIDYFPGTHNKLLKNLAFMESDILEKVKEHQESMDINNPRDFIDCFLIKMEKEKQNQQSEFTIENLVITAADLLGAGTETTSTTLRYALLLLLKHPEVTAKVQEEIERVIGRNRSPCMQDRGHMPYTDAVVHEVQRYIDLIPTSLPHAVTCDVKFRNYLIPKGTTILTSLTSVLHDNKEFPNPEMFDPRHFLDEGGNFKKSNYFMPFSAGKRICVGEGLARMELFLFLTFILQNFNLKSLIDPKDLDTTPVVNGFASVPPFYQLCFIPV

T1 sequence (P49327 whole entry): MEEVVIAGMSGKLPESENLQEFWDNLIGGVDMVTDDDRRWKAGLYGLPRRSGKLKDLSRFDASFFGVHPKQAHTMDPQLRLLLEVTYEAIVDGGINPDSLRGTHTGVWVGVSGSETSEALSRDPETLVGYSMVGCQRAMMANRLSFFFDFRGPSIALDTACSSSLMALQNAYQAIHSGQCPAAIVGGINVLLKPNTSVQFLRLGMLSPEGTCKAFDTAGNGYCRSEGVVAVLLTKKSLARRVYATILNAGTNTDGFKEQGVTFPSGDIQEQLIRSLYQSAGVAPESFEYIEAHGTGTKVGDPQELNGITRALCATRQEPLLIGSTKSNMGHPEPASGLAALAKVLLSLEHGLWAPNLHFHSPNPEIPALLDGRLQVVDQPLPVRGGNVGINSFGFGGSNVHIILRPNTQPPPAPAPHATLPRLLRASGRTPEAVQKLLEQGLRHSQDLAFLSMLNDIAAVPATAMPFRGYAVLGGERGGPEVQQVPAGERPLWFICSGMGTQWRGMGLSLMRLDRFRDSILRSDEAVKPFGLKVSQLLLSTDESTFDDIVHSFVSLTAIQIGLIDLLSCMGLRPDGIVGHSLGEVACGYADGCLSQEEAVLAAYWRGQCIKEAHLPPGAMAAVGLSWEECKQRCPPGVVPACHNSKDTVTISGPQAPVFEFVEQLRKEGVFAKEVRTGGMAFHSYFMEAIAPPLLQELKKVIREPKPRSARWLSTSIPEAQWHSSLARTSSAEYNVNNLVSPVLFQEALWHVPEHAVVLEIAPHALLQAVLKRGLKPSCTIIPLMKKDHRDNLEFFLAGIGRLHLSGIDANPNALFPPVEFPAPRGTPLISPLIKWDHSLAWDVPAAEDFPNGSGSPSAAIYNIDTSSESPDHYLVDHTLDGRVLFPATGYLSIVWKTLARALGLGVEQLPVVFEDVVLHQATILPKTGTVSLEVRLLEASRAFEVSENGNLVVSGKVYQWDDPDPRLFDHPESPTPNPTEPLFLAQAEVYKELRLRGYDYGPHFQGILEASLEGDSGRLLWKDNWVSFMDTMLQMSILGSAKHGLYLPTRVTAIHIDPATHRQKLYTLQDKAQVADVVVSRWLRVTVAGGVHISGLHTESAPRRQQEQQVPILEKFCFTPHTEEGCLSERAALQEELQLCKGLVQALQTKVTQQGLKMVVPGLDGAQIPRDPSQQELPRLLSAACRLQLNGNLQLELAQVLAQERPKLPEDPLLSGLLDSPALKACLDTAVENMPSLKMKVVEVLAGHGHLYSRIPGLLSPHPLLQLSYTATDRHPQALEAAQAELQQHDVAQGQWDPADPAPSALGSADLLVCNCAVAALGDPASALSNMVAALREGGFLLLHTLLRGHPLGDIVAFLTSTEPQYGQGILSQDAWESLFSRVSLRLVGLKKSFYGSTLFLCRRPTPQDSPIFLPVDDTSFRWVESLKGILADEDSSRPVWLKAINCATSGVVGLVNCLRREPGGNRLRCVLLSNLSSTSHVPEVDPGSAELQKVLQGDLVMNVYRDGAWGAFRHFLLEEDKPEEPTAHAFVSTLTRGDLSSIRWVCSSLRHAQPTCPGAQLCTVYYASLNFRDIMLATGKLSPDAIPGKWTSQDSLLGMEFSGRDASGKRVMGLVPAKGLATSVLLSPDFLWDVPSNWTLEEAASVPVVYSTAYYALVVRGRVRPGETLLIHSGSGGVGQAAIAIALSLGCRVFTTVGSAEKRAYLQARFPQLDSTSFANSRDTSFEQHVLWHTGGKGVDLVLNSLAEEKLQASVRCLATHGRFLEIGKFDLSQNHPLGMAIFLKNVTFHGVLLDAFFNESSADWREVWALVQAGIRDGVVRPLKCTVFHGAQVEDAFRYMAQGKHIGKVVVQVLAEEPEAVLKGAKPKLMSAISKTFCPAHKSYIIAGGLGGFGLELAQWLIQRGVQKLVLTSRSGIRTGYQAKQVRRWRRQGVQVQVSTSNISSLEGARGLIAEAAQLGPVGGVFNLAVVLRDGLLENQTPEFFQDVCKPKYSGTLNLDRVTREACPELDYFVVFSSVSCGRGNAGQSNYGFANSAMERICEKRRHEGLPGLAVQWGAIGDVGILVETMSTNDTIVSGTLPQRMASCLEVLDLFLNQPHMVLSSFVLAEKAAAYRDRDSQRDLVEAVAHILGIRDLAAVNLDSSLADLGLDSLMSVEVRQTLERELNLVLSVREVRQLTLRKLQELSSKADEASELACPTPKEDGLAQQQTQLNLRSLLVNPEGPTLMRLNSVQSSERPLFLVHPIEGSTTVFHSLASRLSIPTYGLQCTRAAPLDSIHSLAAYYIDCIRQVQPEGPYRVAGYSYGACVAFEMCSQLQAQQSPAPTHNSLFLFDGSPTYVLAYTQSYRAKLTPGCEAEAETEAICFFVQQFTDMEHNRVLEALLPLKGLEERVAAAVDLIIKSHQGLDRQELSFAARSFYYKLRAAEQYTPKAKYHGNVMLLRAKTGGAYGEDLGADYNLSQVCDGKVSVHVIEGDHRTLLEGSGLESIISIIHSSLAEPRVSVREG
FAD-linked sulfhydryl oxidase ALR, sequence (P55789 whole entry): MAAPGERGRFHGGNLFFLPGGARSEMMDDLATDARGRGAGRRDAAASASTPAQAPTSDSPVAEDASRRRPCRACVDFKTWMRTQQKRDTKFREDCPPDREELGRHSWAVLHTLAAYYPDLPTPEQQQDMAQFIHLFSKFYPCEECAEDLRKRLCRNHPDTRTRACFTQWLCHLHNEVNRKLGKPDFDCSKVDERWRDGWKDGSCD
Cytochrome P450 2C9, sequence (P11712 whole entry): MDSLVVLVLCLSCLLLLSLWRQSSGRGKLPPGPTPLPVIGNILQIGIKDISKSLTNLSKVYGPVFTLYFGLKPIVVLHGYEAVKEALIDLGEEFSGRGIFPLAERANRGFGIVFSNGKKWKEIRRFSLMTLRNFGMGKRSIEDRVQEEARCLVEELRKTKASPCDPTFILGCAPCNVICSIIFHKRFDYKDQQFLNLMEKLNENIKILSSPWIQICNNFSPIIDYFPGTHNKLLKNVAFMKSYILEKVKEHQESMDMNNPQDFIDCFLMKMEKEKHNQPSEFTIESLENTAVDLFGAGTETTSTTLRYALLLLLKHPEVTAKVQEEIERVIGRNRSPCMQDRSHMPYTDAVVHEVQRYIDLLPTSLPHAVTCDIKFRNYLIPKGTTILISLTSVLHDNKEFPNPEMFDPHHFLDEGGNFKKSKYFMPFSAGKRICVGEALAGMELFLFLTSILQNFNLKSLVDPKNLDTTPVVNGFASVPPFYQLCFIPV
Large T antigen, sequence (P03070 whole entry): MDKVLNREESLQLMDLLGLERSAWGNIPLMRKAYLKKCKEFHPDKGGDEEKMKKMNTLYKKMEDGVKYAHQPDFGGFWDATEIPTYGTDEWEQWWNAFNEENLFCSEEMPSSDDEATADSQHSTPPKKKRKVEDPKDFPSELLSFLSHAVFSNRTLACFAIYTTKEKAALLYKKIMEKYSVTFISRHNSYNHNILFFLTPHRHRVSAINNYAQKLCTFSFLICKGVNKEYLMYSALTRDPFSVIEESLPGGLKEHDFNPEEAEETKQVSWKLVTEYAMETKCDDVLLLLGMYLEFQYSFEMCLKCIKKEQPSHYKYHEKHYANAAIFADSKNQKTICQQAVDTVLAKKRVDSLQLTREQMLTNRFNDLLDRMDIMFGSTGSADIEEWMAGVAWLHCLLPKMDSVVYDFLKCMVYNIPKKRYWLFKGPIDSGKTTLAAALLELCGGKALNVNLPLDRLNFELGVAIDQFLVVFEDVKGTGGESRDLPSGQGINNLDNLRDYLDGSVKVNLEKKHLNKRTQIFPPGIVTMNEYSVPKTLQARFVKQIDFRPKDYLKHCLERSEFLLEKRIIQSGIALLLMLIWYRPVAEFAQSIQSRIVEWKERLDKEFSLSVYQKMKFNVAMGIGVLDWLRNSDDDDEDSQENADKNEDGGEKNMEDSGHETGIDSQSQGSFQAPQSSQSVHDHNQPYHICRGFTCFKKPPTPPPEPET
Cytochrome P450 3A4, sequence (P08684 whole entry): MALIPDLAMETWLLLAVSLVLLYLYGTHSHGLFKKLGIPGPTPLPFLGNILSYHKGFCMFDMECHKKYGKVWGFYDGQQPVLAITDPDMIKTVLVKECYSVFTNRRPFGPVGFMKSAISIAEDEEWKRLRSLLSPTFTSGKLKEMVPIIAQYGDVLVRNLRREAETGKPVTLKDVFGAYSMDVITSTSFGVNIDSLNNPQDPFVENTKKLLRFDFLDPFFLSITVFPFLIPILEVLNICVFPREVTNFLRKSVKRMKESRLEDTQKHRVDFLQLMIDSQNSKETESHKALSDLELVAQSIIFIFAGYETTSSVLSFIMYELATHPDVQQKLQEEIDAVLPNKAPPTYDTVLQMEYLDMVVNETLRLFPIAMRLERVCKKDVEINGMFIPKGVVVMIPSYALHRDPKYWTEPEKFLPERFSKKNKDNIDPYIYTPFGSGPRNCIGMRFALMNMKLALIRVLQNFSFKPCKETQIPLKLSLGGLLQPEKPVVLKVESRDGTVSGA

CC1(C)C2CCC1(C)C(OCC[N+](C)(C)CC(=O)OC1CCCCC1)C2 (centres undefined)
EC50 [1]: > 150 µM (inactive)
EC50 [2]: 0.743 µM (active)

COc1ccccc1NC(=O)c1sc2ncn(Cc3ccccc3C)c(=O)c2c1C
AC50 (Cytochrome P450 2C9): inconclusive

CCOC(=O)N1CCN(Cc2nc3ccc([N+](=O)[O-])cc3c(=O)n2-c2cccc(OC)c2)CC1
IC50 (Fatty acid synthase [3]): 3.46 µM (active)
IC50 (Fatty acid synthase [4]): 3.04 µM (active)

Cc1cc(C)nc(Nc2n[nH]c(COc3cccc4ccccc34)n2)n1
AC50 (Cytochrome P450 3A4): 2.24 µM (inconclusive)
AC50 (Cytochrome P450 2C9): inconclusive

COc1cccc(OC)c1C(=O)Nc1ccc(N2CCCCC2)cc1
AC50 [5]: 7.85 µM (active)

Nc1cc(S(=O)(=O)N2CCCCC2)ccc1Oc1ccccc1
IC50 [6]: 20.8 µM (not active)

Cc1ccc(Nc2c3c(nc4ccccc24)CCC3)cc1
EC50 (cells [7]): > 350 µM (not active)
EC50 (cells [8]): > 350 µM (not active)
AC50 (INS1): 8.95 µM (active)

CCCCN1C(=O)NC(=O)/C(=C(\C)NCCc2ccccc2)C1=O
IC50 [6]: 17.7 µM (not active)

CCCn1c(CCC(=O)O)ccc1-c1cccs1
AC50 [5]: 8.5 µM (active)

Nc1ccc2oc3ccc(N)cc3c(=O)c2c1
AC50 [5]: 1.07 µM (active)

C=CCOc1ccc(CNc2ccc3[nH]c(O)nc3c2)cc1OCC
IC50 (Large T antigen): 20.5 µM (active)

O=S(=O)(Nc1ccc(-c2csc(-c3ccccc3)n2)cc1)c1ccccc1
AC50 [9]: 5.04 µM (active)
IC50 (Fatty acid synthase [3]): 9.18 µM (active)
IC50 (Fatty acid synthase [4]): 8.85 µM (active)

O=C1CC(SC(=NCc2ccc3c(c2)OCO3)Nc2ccccc2)C(=O)N1c1ccccc1 (centres undefined)
IC50 [6]: > 50 µM (not active)

CC(C)NC(=O)c1ccc(-c2cccc(C(F)(F)F)c2)o1
AC50 (Cytochrome P450 2C9): inconclusive

Cc1ccc(-c2ccc(/C=N/NC(=O)CN3CCCC3)o2)cc1Cl
CC50 [10]: 37.8 µM (active)

COc1cc(/C=N/NC(=O)c2ccncc2)ccc1O
IC50 (Large T antigen): 6.8 µM (active)

O=C(COc1ccccc1[N+](=O)[O-])N/N=C/c1ccc(O)cc1
IC50 (Large T antigen): 9.26 µM (active)
IC50 [11]: 80.8 µM (active)

O/N=C(\c1ccc2c(c1)OCCO2)C1CCCCC1
IC50 [6]: 25.1 µM (not active)

O=C(N/N=C\c1ccccc1OCc1ccccc1)c1ccco1
CC50 [10]: 39.6 µM (active)

Sc1nncn1/N=C/c1cccc(Oc2ccccc2)c1
AC50 [5]: 2.09 µM (active)

N#C/C(=C\c1ccc(O)c(O)c1)C(=O)NCc1ccccc1
IC50 (Large T antigen): 14.6 µM (active)
AC50 (Cytochrome P450 2C19): 25.1 µM (inconclusive)
AC50 (Cytochrome P450 2C9): inconclusive

O=c1c(-c2ccc(O)cc2)coc2cc(O[C@@H]3O[C@H](CO)[C@@H](O)[C@H](O)[C@H]3O)ccc12 [DAIDZIN]
IC50 (Large T antigen): > 100 µM (active)

C1=Cc2ccccc2Nc2ccccc21 [IMINOSTILBENE]
IC50 (Large T antigen): 14.3 µM (active)
IC50 [11]: 14.9 µM (active)
